In ChEMBL document CHEMBL1201862, “PubChem BioAssay data set” (2004):
Calls of active or inactive are those of the source.

Experiments:
ORF 73 = target: T1, ORF 73 (Human herpesvirus 8, UniProt O40947); assay: KSHV LANA DNA-binding disruption – biochemical, fluorescence polarization, cherry-picked samples, dose response (AID 504725); set-up: species or system Human gammaherpesvirus 8;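 further: fluorescence polarization of a labeled DNA duplex reporting LANA DNA binding; potency is for inhibitors that block LANA binding to the DNA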
T1 sequence (O40947 whole entry): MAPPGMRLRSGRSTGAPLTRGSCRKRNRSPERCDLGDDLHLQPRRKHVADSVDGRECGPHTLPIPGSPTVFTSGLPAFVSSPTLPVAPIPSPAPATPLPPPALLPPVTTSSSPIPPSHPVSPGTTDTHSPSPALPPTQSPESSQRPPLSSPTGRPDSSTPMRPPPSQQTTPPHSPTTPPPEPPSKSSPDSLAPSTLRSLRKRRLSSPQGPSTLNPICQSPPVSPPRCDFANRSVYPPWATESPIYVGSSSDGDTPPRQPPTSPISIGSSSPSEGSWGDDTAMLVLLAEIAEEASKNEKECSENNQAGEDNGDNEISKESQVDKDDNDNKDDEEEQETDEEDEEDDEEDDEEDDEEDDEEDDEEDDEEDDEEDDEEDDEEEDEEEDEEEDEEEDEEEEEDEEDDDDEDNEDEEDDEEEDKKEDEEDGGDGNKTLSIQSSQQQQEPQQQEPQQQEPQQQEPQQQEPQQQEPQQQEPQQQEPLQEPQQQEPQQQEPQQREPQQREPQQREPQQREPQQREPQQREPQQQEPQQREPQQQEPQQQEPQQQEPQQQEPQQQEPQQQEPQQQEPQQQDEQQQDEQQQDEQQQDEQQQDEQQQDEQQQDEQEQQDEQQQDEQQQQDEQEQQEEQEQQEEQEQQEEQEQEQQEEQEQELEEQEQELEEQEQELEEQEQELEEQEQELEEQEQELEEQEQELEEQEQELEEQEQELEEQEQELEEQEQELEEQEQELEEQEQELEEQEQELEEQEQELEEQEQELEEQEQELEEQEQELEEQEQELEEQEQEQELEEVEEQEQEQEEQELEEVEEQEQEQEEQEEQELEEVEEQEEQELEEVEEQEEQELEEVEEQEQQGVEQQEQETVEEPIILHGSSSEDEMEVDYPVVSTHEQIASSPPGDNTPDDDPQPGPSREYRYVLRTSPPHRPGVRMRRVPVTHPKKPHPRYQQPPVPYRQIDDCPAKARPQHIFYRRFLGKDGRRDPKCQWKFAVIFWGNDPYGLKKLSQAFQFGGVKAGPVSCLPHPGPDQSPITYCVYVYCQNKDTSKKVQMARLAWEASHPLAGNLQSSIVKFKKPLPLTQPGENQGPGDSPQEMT

[1] = target: UDP-galactopyranose mutase (Mycobacterium tuberculosis, UniProt P9WIQ1); assay: Inhibitors of Mycobacterium tuberculosis UDP-galactopyranose mutase (UGM) enzyme Measured in Biochemical System Using Plate Reader - 2105-02_Inhibitor_Dose_CherryPick_Activity. [Related pubchem assays (depositor defined):AID504439]
Sequence of UDP-galactopyranose mutase (P9WIQ1 whole entry): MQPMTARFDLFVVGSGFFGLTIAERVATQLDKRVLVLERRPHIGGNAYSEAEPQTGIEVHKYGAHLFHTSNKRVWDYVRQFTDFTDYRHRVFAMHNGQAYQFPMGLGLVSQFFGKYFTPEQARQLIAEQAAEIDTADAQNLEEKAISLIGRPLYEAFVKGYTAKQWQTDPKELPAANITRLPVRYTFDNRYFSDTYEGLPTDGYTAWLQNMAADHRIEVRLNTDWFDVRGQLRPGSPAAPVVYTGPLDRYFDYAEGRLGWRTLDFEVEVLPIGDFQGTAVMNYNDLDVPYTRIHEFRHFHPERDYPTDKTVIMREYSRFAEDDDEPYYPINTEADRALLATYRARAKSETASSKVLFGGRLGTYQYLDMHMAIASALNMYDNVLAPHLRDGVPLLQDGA

Beta-lactamase = Beta-lactamase (Pseudomonas aeruginosa, UniProt Q79MP6);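 further: biochemical dose-response test of metallo-beta-lactamase enzyme inhibition, read out by epi-absorbance; purified recombinant IMP-1 metallo-beta-lactamase with nitrocefin as substrate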
Sequence of Beta-lactamase (Q79MP6 whole entry): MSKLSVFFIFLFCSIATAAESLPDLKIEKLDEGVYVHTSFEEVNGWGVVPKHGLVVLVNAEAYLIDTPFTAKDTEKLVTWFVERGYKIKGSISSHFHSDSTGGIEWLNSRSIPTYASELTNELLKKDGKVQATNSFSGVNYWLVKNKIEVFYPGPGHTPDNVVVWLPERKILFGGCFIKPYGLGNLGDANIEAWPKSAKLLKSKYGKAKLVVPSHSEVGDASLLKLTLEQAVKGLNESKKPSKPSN

[2] = activation of miR-122 Renilla sensor silencing – cell-based, Huh7 psiCHECK-miR122, Renilla luciferase, cherry-picked, dose response (AID 651956); assay type: functional;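 further: huh7 hepatoma cells stably carrying a psiCHECK-2 miR-122 sensor plasmid; renilla luciferase signal reporting endogenous miR-122 activity after 48 h compound exposure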
[3] = Trypanosoma cruzi growth suppression in host cells – NIH3T3 host cells, beta-gal luminescence, confirmation (AID 2044); assay type: functional, cell-based;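 further: intracellular parasites grown in NIH/3T3 mouse fibroblasts as host cells; luminescent beta-galactosidase reporter signal from transgenic T. cruzi replicating inside host cells; inhibitors lower the luminescence signal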
[4] = target: T2, RNA-binding protein pos-1 (Caenorhabditis elegans, UniProt G5EF15); assay: disruptors of C. elegans POS-1 RNA interaction – biochemical, fluorescence polarization, dose response (AID 1964);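 further: purified POS-1 fused to maltose binding protein made in E. coli; potency of compounds blocking POS-1 binding to fluorescent RNA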
T2 sequence (G5EF15 whole entry): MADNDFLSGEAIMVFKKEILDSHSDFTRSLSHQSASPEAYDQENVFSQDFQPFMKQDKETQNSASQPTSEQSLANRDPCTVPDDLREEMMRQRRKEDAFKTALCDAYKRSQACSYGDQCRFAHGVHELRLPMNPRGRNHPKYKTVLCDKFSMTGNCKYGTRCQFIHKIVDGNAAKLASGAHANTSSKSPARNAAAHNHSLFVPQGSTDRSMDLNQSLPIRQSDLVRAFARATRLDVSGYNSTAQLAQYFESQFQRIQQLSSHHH

[5] = Luminescence Cell-Based Dose Response HTS to Identify Inhibitors of 5'UTR Stem-Loop Driven Prion Protein mRNA Translation in H4 Neuroglioblastoma Cells. [Related pubchem assays: 1827 (Project Summary), 1813 (Primary HTS)]; assay type: functional
cells = assay type: functional, cell-based
[6] = target: T3, Zinc finger protein mex-5 (Caenorhabditis elegans, UniProt Q9XUB2); assay: potency of MEX-5 RNA-binding blockers – biochemical, C. elegans, fluorescence polarization, dose response (AID 1960)
T3 sequence (Q9XUB2 whole entry): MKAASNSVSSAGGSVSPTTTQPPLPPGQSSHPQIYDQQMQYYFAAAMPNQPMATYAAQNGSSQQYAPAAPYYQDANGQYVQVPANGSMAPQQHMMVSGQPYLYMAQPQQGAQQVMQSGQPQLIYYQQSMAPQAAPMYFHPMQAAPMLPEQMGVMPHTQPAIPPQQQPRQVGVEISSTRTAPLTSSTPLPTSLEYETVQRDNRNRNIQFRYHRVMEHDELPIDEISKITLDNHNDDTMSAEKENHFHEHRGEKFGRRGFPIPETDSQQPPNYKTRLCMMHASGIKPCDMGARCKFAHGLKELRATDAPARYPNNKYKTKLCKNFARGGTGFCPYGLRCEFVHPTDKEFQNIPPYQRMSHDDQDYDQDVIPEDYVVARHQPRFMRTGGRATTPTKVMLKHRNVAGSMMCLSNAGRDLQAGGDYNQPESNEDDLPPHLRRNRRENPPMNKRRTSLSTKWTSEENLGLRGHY

[7] = target: Induced myeloid leukemia cell differentiation protein Mcl-1 (Homo sapiens, UniProt Q07820); assay type: functional
Sequence of Induced myeloid leukemia cell differentiation protein Mcl-1 (Q07820 whole entry): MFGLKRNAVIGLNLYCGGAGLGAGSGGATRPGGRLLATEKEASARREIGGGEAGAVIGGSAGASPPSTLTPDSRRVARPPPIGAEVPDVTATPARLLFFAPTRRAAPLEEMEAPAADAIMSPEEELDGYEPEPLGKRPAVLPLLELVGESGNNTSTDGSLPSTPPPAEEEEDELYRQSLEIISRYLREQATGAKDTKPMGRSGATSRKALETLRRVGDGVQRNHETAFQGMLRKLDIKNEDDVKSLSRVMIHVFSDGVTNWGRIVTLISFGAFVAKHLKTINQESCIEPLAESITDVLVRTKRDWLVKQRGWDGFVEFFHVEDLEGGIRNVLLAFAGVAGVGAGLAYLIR

[8] = target: Likely tRNA 2'-phosphotransferase (Candida albicans (strain SC5314 / ATCC MYA-2876) (Yeast), UniProt Q5A7N4); assay: inhibition of Candida TPT1 enzyme activity – biochemical, fluorescence polarization, dose response (AID 2160)
Sequence of Likely tRNA 2'-phosphotransferase (Q5A7N4 whole entry): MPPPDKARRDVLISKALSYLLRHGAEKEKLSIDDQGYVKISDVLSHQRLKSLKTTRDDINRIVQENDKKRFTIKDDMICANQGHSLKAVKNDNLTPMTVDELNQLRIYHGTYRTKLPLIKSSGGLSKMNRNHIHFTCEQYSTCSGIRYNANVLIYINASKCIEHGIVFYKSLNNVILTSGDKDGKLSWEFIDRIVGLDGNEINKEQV

Ephrin type-A receptor 4 = Ephrin type-A receptor 4 (Mus musculus, UniProt Q03137); assay: EphA4 ligand-binding antagonists – biochemical, colorimetric, mouse EphA4, primary screen (AID 689); assay type: functional
Sequence of Ephrin type-A receptor 4 (Q03137 whole entry): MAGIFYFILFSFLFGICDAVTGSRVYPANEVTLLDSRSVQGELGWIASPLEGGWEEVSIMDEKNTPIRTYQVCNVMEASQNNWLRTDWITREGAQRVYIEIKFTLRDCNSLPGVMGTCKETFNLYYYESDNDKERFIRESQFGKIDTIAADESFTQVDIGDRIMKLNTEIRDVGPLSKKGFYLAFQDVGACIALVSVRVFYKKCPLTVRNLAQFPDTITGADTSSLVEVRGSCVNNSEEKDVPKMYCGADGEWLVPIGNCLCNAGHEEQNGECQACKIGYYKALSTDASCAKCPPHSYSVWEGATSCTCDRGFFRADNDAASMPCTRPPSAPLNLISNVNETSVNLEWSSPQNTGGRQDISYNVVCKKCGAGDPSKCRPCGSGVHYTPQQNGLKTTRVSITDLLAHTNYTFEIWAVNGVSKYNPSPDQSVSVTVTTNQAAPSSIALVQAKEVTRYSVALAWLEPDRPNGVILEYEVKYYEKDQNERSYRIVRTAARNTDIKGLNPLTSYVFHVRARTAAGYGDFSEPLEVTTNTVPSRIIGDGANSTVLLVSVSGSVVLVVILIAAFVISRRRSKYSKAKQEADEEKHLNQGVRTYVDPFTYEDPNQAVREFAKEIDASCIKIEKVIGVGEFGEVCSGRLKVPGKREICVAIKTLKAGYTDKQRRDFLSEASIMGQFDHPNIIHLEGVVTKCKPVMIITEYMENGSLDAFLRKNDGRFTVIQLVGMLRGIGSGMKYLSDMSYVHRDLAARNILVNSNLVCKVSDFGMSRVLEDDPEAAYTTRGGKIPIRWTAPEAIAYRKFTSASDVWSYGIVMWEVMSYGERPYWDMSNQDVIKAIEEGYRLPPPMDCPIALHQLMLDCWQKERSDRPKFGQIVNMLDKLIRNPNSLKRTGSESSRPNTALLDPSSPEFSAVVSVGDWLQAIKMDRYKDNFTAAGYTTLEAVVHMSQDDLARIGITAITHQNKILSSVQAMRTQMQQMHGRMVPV

Troponin, cardiac muscle = Troponin, cardiac muscle (Homo sapiens, UniProt P19429+P45379+P63316); assay: compounds desensitizing RTF to calcium – biochemical, fluorescence, cardiac regulated thin filaments, triplicate IC50, dose response (AID 504742); assay type: protein-complex assay
Large T antigen = Large T antigen (Simian virus 40, UniProt P03070); assay type: functional, Betapolyomavirus macacae;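 further: Confirmatory-stage PubChem screen for compounds that inhibit SV40 T antigen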
Sequence of Large T antigen (P03070 whole entry): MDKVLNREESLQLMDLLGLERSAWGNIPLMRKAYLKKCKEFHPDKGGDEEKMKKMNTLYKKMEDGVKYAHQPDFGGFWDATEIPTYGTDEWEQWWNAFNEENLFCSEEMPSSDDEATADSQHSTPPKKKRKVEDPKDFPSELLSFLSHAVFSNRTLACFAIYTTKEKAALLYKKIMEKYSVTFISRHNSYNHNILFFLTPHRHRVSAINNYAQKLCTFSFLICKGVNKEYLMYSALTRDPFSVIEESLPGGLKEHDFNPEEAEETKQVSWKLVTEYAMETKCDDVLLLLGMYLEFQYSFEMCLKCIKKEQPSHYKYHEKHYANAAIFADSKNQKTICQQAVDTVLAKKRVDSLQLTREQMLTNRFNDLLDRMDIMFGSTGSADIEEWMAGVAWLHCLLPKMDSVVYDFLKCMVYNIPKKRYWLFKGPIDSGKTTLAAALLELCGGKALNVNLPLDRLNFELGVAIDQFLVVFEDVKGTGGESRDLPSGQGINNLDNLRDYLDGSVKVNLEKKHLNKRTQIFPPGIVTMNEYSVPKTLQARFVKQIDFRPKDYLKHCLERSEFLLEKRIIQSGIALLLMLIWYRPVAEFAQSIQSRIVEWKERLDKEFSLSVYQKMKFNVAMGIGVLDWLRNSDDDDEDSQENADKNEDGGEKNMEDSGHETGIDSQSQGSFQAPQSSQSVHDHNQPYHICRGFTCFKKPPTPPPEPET

O=C1CCN2C=Nc3cccc4ccc1c2c34
AC50 (ORF 73): 1.42 µM (active)
AC50 [1]: 2.33 µM (active)
IC50 (Beta-lactamase): 11.8 µM (inactive)

Oc1ccc2ccccc2c1/C=N/Nc1nnc(-c2ncc[nH]2)c2ccccc12
AC50 [2]: 37.6 µM (active)
EC50 [3]: 0.412 µM (active)
EC50 [4]: 48.7 µM (inconclusive)
EC50 [5]: 0.292 µM (active)
EC50 (cells): > 350 µM (not active)
EC50 [6]: 2.45 µM (active)

CC(C)C(C(=O)O)N1C(=O)/C(=C/C=C/c2ccco2)SC1=S (configuration not stated)
IC50 [7]: > 54 µM (active)
AC50 (ORF 73): 45.6 µM (active)
IC50 [8]: 20.5 µM (not active)
EC50 [4]: 11 µM (inconclusive)
IC50 (Ephrin type-A receptor 4): 5.26 µM (active)
IC50 (Troponin, cardiac muscle): 22.4 µM (inactive)
IC50 (Large T antigen): 24.6 µM (active)
EC50 [6]: 19.4 µM (inconclusive)
